Our source for the IC50 values is patent publication US20230212138A1, “PHD INHIBITOR COMPOUNDS, COMPOSITIONS, AND THEIR USE” (Akebia Therapeutics, Inc., priority 2020, published 2023).

Common to all, as to format: biochemical
Assay [1] has as its target T1, full-length human PHD1 (Homo sapiens, UniProt Q96KS0).
T1 construct: expressed in a baculovirus expression system as the full-length protein; FLAG (N); purchased Active Motif 81064; host or cells: baculovirus expression system
Put plainly: TR-FRET assay, PHD1 enzymatic IC50. The settings on record: 15 nM PHD1, 1 μM 2-OG. An excerpt:
(§1) In the presence of 2-oxoglutarate and O2, PHD enzyme hydroxylates proline 564 of biotin-tagged HIF-1α peptide resulting in generation of biotin-tagged HIF-1α-hydroxyproline, succinate and CO2. The resulting proximity of the donor fluorophore complex, monoclonal antibody anti-6His-Terbium (Tb)-cryptate Gold, bound to the His-tagged VHL protein, EloB, EloC complex (His-VBC) and the acceptor fluorophore, SA-D2 complex, bound to HIF-1α-hydroxyproline results in a fluorescence resonance energy transfer signal that can be detected and quantified
(§2) Time-resolved fluorescence resonance energy transfer (TR-FRET) assay was utilized to determine the enzymatic half maximal inhibitory concentration (IC50) value of PHD inhibitors against the full-length human prolyl-4-hydroxylase domain (PHD) enzymes, PHD1, PHD2, and PHD3. The TR-FRET assay was developed based on the specific binding of hydroxylated HIF-1α peptide with the complex formed by VHL, EloB and EloC (VBC), to generate a fluorescent signal. Terbium (Tb)-Donor (monoclonal antibody anti-6His-Tb-cryptate Gold) and D2-acceptor (streptavidin [SA]-D2) of TR-FRET are linked to the VBC complex and to HIF-1α peptide, respectively. The VBC complex binds specifically to the HIF-1α peptide when it is hydroxylated, allowing energy transfer from TR-FRET donor to acceptor (FIG. 1).
Recombinant human PHD1 protein (catalog #81064, Lot #24717001) was purchased from Active Motif (Carlsbad, Calif., USA). PHD1 was expressed in a baculovirus expression system as the full-length protein (NCBI accession number NP_542770.2) with an N-terminal FLAG tag (molecular weight 44.9 kDa). Purity (>90%) was assessed by SDS-PAGE.
(§3) PHD inhibitor compound was preincubated with PHD enzyme in a 10 μL reaction volume in white 384-well Optiplate microplates (catalog #6007290, Perkin Elmer, Waltham, Mass., USA). For this, 5 μL PHD inhibitor compound was serially diluted with dilution buffer (50 mM HEPES [4-(2-hydroxyethyl)-1-piperazineethanesulfonic acid] pH 7.5, 50 mM sodium chloride [NaCl], 0.01% Tween-20, 0.01% purified bovine serum albumin [BSA]) and mixed with 5 μL PHD enzyme mix prepared as a 4× concentrate in the dilution buffer containing PHD enzyme (60 nM PHD1, 20 nM PHD2, 140 nM PHD3), 40 μM ferrous ammonium sulfate (FAS), 4 mM sodium (Na) ascorbate. The plates were incubated for 30 minutes at room temperature without rotation.
(§4) Five microliters of the VBC/anti-6His-Tb-cryptate Gold mix prepared as a 4×concentrate in dilution buffer containing 20 nM His-VBC, 1.32 nM monoclonal antibody anti-6His-Tb-cryptate Gold was then added. This step was followed immediately by the addition of 5 μL of the HIF-1α C35 substrate mix prepared as a 4×concentrate in the dilution buffer containing 120 nM biotin-labeled HIF-1α C35, 132 nM SA-D2, 4 μM 2-oxoglutarate (2-OG) to reach a final reaction volume of 20 μL.
(§5) The final assay reaction contained 50 mM HEPES, pH 7.5, 50 mM NaCl, 1 μM 2-OG, 10 μM FAS, 1 mM Na ascorbate, 0.01% Tween-20, 0.01% purified BSA, 30 nM biotin-labeled HIF-1α C35, 5 nM His-VBC, 0.33 nM monoclonal antibody anti-6His-Tb-cryptate Gold, 33 nM SA-D2 and PHD enzyme (15 nM PHD1, 5 nM PHD2, or 35 nM PHD3) with the diluted compound.
(§6) For the measurement of the IC50 of PHD inhibitor compound, reactions were incubated for 10 minutes at room temperature and then read on a Perkin Elmer EnVision (Waltham, Mass., USA) at an excitation wavelength of 340 nm and at emission wavelengths of 615 nm and 665 nm. The data represent the quotient of the signal intensity at 665 nm and 615 nm, automatically calculated by Envision Manager software (Perkin Elmer, Waltham, Mass., USA). The IC50 values (mean, standard deviation, standard error of the mean, geometric mean and 95% confidence interval) were determined using a four-parameter curve-fit using GraphPad Prism 7.0 (GraphPad, La Jolla, Calif., USA) and represent the compound concentration plotted against the calculated ratio of 665 nm and 615 nm. […]
A general note: TR-FRET usually uses a lanthanide donor and a delayed reading to cut background.

Assay [2] addresses T2, full-length human PHD2 (Homo sapiens, UniProt Q9GZT9).
T2 construct: The PHD2 construct contained amino acids 1 to 426 of PHD2; His tag (N, cleaved yes); TEV protease cleavage site (N, cleaved yes); host or cells: Sf9 insect cells (baculovirus)
Put plainly: TR-FRET assay, PHD2 enzymatic IC50. To be noted: 5 nM PHD2, 1 μM 2-OG.
Source text: as §1, §2
The full-length human PHD2 enzyme was produced with a baculovirus infected insect cell (BIIC) expression system by Beryllium (Bedford, Mass., USA). The PHD2 construct contained amino acids 1 to 426 of PHD2 (UniProt Knowledgebase[UniProtKB]/Swiss-Prot accession number Q9GZT9.1), and a His tag and a Tobacco Etch Virus (TEV) protease cleavage site at the N-terminus. The construct was expressed in Sf9 insect cells, purified by Ni-NTA column and digested with TEV protease to remove the His tag.
as §3, §4, §5
For the measurement of the IC50 of PHD inhibitor compound, reactions were incubated for 10 minutes at room temperature and then read on a Perkin Elmer EnVision (Waltham, Mass., USA) at an excitation wavelength of 340 nm and at emission wavelengths of 615 nm and 665 nm. The data represent the quotient of the signal intensity at 665 nm and 615 nm, automatically calculated by Envision Manager software (Perkin Elmer, Waltham, Mass., USA). […]

Assay [3] concerns the target T3, full-length human PHD3 (Homo sapiens, UniProt Q9H6Z9).
T3 construct: It was expressed in E. coli as the full-length protein; 6-His (N); purchased Active Motif 81033; host or cells: E. coli
Put plainly: TR-FRET assay, PHD3 enzymatic IC50. To be noted: 35 nM PHD3, 1 μM 2-OG.
Source text: as §1, §2
Recombinant human PHD3 protein (molecular weight 31.1 kDa) was purchased from Active Motif (Carlsbad, Calif., USA). It was expressed in E. coli as the full-length protein (NCBI accession number NP_071356.1) with an N-terminal 6-His tag (catalog #81033, Lot #24417001).
as §3, §4, §5, §6

T1 sequence (Q96KS0 whole entry): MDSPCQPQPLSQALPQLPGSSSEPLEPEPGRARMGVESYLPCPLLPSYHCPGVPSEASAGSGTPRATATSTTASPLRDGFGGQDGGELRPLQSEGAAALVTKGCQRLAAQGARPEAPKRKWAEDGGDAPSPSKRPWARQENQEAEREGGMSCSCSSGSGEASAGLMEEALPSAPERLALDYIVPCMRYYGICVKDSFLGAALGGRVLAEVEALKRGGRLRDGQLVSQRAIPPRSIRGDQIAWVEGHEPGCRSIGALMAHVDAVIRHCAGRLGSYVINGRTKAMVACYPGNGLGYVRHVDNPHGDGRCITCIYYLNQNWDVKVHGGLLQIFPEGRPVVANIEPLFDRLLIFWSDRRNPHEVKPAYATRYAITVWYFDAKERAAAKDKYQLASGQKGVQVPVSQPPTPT
T2 sequence (Q9GZT9 whole entry, the tested form may be a part): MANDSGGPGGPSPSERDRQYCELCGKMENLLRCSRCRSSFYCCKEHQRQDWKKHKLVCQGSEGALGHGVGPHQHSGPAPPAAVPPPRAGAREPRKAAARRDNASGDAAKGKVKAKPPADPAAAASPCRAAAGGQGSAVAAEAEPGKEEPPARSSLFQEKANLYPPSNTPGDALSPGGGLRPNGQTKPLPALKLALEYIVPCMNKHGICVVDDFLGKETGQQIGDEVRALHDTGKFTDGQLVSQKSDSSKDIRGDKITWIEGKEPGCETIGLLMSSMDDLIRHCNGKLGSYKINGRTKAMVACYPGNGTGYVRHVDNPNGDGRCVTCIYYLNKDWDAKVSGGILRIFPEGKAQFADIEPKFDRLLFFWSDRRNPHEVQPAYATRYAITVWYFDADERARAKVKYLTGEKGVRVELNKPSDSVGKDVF
T3 sequence (Q9H6Z9 whole entry): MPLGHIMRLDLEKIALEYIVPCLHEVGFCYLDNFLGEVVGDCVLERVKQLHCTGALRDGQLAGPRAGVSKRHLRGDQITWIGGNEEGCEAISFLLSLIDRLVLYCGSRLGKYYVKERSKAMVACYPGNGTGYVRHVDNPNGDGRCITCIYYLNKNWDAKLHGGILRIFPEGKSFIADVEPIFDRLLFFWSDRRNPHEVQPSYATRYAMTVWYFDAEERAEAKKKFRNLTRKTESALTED

As a reminder, the IC50 is the point on the concentration scale where inhibition reaches its midpoint. High values mean weaker potency in that assay, low ones greater potency in that assay. Consider `CC(=O)c1ccc(-n2ncc(-c3ccc(C#N)cc3)c2O)nc1` [Compound 1, 4-(1-(5-acetylpyridin-2-yl)-5-hydroxy-1H-pyrazol-4-yl)benzonitrile], for which the IC50 in assay [1], in assay [2] and in assay [3] was less than 100 nM each time.
In the case of `CCC(=O)c1ccc(-n2ncc(-c3ccc(C#N)cc3)c2O)nc1` [Compound 2, 4-(5-hydroxy-1-(5-propionylpyridin-2-yl)-1H-pyrazol-4-yl)benzonitrile], the IC50 in assay [1], in assay [2] and in assay [3] was less than 100 nM in each case.
`CC(C)C(=O)c1ccc(-n2ncc(-c3ccc(C#N)cc3)c2O)nc1` [Compound 3, 4-(5-hydroxy-1-(5-isobutyrylpyridin-2-yl)-1H-pyrazol-4-yl)benzonitrile]: the IC50 in assay [1], in assay [2] and in assay [3] was less than 100 nM each time.
Regarding `CS(=O)(=O)c1ccc(-n2ncc(-c3ccc(C#N)cc3)c2O)nc1` [Compound 4, 4-(5-hydroxy-1-(5-(methylsulfonyl)pyridin-2-yl)-1H-pyrazol-4-yl)benzonitrile], the IC50 in assay [1], in assay [2] and in assay [3] was less than 100 nM each time.
On to `CS(=O)(=O)c1ccc(-n2ncc(-c3cccc(C#N)c3)c2O)nc1` [Compound 5, 3-(5-hydroxy-1-(5-(methylsulfonyl)pyridin-2-yl)-1H-pyrazol-4-yl)benzonitrile], for which the IC50 in assay [1] is 100 to 1000 nM; in assay [2], less than 100 nM.
As for `Cc1cc(C#N)ccc1-c1cnn(-c2ccc(S(C)(=O)=O)cn2)c1O` [Compound 6, 4-(5-hydroxy-1-(5-(methylsulfonyl)pyridin-2-yl)-1H-pyrazol-4-yl)-3-methylbenzonitrile], the IC50 in assay [1], in assay [2] and in assay [3] was less than 100 nM each time.
In the case of `CS(=O)(=O)c1ccc(-n2ncc(-c3ccc(CC#N)cc3)c2O)nc1` [Compound 7, 2-(4-(5-hydroxy-1-(5-(methylsulfonyl)pyridin-2-yl)-1H-pyrazol-4-yl)phenyl)acetonitrile], the IC50 in assay [1], in assay [2] and in assay [3] was less than 100 nM each time.
As for `N#Cc1ccc(-c2cnn(-c3ccc(-c4ccccn4)cn3)c2O)cc1` [Compound 13, 4-(1-([2,3′-bipyridin]-6′-yl)-5-hydroxy-1H-pyrazol-4-yl)benzonitrile], the IC50 in assay [1] is less than 100 nM; in assay [2], 100 to 1000 nM.
For `N#Cc1ccc(-c2cnn(-c3ccc(C(F)(F)F)cn3)c2O)cc1` [Compound 14, 4-(5-hydroxy-1-(5-(trifluoromethyl)pyridin-2-yl)-1H-pyrazol-4-yl)benzonitrile], the IC50 in assay [1] lay in the range of 100 to 1000 nM; in assay [2], 1000 to 10000 nM.
Taken in the same sequence, the figures for `N#Cc1ccc(-c2cnn(-c3ccc(C4CC4)cn3)c2O)cc1` [Compound 16, 4-(1-(5-cyclopropylpyridin-2-yl)-5-hydroxy-1H-pyrazol-4-yl)benzonitrile] were 100 to 1000 nM and no less than 10000 nM.
As to `N#Cc1ccc(-c2cnn(-c3ccc(Cl)cn3)c2O)cc1` [Compound 18, 4-(1-(5-chloropyridin-2-yl)-5-hydroxy-1H-pyrazol-4-yl)benzonitrile], the IC50 in assay [1] and in assay [2] was 100 to 1000 nM each time.
For the molecule `N#Cc1ccc(-c2cnn(-c3ccc(Br)cn3)c2O)cc1` [Compound 21, 4-(1-(5-bromopyridin-2-yl)-5-hydroxy-1H-pyrazol-4-yl)benzonitrile], the IC50 in assay [1] and in assay [2] was 100 to 1000 nM each time.
Regarding `CS(=N)(=O)c1ccc(-n2ncc(-c3ccc(C#N)cc3)c2O)nc1` (stereo not shown) [Compound 26, 4-(5-hydroxy-1-(5-(S-methylsulfonimidoyl)pyridin-2-yl)-1H-pyrazol-4-yl)benzonitrile], the IC50 in assay [1] and in assay [2] was less than 100 nM throughout.
As for `CS(=O)(=O)NC(=O)c1ccc(-n2ncc(-c3ccc(C#N)cc3)c2O)nc1` [Compound 27, 6-(4-(4-cyanophenyl)-5-hydroxy-1H-pyrazol-1-yl)-N-(methylsulfonyl) nicotinamide], the IC50 in assay [1] and in assay [2] was less than 100 nM in each case.
As to `N#Cc1ccc(-c2cnn(-c3ccc(NC(=O)N4CCOCC4)cn3)c2O)cc1` [Compound 28, N-(6-(4-(4-cyanophenyl)-5-hydroxy-1H-pyrazol-1-yl)pyridin-3-yl)morpholine-4-carboxamide], the IC50 in assay [1] and in assay [2] was no less than 10000 nM throughout.
Consider `CC(=O)NS(=O)(=O)c1ccc(-n2ncc(-c3ccc(C#N)cc3)c2O)nc1` [Compound 29, N-((6-(4-(4-cyanophenyl)-5-hydroxy-1H-pyrazol-1-yl)pyridin-3-yl)sulfonyl)acetamide], for which the IC50 in assay [1] and in assay [2] was less than 100 nM throughout.
Take `CP(C)(=O)c1ccc(-n2ncc(-c3ccc(C#N)cc3)c2O)nc1` [Compound 30, 4-(1-(5-(dimethylphosphoryl)pyridin-2-yl)-5-hydroxy-1H-pyrazol-4-yl)benzonitrile]: the IC50 in assay [1] and in assay [2] was less than 100 nM throughout.
In the case of `CS(=O)(=O)c1ccc(-n2ncc(-c3ccc(Cl)cn3)c2O)nc1` [Compound 31, 4-(5-chloropyridin-2-yl)-1-(5-(methylsulfonyl)pyridin-2-yl)-1H-pyrazol-5-ol], the IC50 in assay [1] and in assay [2] was 100 to 1000 nM in each case.
With `Cc1cc(C#N)ccc1-c1cnn(-c2ncc(S(C)(=O)=O)cc2Cl)c1O` [Compound 32, 4-(1-(3-chloro-5-(methylsulfonyl)pyridin-2-yl)-5-hydroxy-1H-pyrazol-4-yl)-3-methylbenzonitrile], the IC50 in assay [1] and in assay [2] was no less than 10000 nM in each case.
Regarding `N#Cc1ccc(-c2cnn(-c3ccc(NC(=O)N4CCNCC4)cn3)c2O)cc1` [Compound 33, N-(6-(4-(4-cyanophenyl)-5-hydroxy-1H-pyrazol-1-yl)pyridin-3-yl)piperazine-1-carboxamide], the IC50 in assay [1] and in assay [2] was no less than 10000 nM in each case.
